Data on 18 compounds can be found in patent US20190241573A1, “ISOQUINOLINE DERIVATIVES AS PERK INHIBITORS” (GlaxoSmithKline Intellectual Property Development Limited, priority 2016, published 2019).

The target of one assay is T1, GST-PERK enzyme (Homo sapiens, UniProt Q9NZJ5).
T1 sequence (Q9NZJ5 30-1116): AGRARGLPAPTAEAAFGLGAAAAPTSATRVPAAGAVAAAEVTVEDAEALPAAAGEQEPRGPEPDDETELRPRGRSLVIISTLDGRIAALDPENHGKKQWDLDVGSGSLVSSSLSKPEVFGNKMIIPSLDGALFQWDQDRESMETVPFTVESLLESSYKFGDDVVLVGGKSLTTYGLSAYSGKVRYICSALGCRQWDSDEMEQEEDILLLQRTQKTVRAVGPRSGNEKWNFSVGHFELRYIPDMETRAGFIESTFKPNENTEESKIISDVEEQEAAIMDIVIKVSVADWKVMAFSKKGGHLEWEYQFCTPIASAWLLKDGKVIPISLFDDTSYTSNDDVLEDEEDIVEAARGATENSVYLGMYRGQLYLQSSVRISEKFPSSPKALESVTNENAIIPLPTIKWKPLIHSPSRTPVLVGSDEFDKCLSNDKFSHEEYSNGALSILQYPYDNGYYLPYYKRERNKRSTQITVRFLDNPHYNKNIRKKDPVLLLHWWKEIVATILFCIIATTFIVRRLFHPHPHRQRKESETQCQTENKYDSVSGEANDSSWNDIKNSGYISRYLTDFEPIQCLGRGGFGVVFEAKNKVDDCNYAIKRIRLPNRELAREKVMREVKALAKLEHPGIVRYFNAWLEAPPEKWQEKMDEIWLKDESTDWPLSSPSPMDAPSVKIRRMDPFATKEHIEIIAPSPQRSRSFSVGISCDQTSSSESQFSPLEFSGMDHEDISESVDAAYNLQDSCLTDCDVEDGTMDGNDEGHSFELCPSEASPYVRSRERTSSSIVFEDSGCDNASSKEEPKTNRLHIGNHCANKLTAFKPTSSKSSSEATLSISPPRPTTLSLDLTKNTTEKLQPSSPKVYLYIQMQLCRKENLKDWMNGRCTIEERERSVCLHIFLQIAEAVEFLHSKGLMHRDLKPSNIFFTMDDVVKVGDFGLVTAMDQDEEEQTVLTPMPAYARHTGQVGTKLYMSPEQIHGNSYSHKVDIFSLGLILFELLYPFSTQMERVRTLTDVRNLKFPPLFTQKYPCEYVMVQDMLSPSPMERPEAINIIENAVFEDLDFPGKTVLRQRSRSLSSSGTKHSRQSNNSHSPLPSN
The assay can be described thus: PERK enzyme assay. Type of assay: biochemical. The conditions noted are these: 5 μM ATP; biotin-eIF2α substrate, 60 minutes; read-out: average PERK Enzyme (5 μM ATP) pIC50 (converted). As to the method: Example 61: PERK Enzyme Assay
Compounds of the invention were assayed for PERK enzyme inhibitory activity with modifications to previously reported conditions (Axten et al. J. Med. Chem., 2012, 55, 7193-7207). Briefly, various concentrations of compounds (maximum 1% DMSO) were dispensed into 384-well plates containing GST-PERK enzyme. ATP and biotin-elF2α were added and after 60 minutes the reaction was quenched. After 2 hrs, a fluorescence plate reader was used to measure inhibition and pIC50s were calculated. The activity of compound 1 was determined at an ATP concentration=5 μM. For compounds 2-20 the PERK activity was determined at ATP concentration=500 μM ATP.
On to `Cn1cc(-c2ccc3cc(Cc4ccccc4)ncc3c2)c2c(N)ncnc21` [Example 1, 5-(3-Benzylisoquinolin-7-yl)-7-methyl-7H-pyrrolo[2,3-d]pyrimidin-4-amine], for which the IC50 was 15.8 nM.

The assay is the same for the next values; noted with them: 500 μM ATP; biotin-eIF2α substrate, 60 minutes; read-out: average PERK Enzyme (500 μM ATP) pIC50 (converted).
Regarding `Cn1cc(-c2ccc3cc(Cc4cc(F)cc(F)c4)ncc3c2F)c2c(N)ncnc21` [Example 4, 5-(3-(3,5-Difluorobenzyl)-8-fluoroisoquinolin-7-yl)-7-methyl-7H-pyrrolo[2,3-d]pyrimidin-4-amine], the IC50 is 251 nM. On the same count and under the same terms, with `CCn1cc(-c2ccc3cc(Cc4cc(F)cc(F)c4)ncc3c2F)c2c(N)ncnc21` [Example 6, 5-(3-(3,5-difluorobenzyl)-8-fluoroisoquinolin-7-yl)-7-ethyl-7H-pyrrolo[2,3-d]pyrimidin-4-amine] the figure was 158 nM; with `Cc1cc(C)cc(C(=O)c2cc3ccc(-c4cn(C)c5ncnc(N)c45)cc3cn2)c1` [Example 15, (7-(4-amino-7-methyl-7H-pyrrolo[2,3-d]pyrimidin-5-yl)isoquinolin-3-yl)(3,5-dimethylphenyl)methanone], more than 3980 nM; with `Cn1cc(-c2ccc3cc(Cc4cc(F)ccc4F)ncc3c2F)c2c(N)ncnc21` [Example 17, 5-(3-(2,5-difluorobenzyl)-8-fluoroisoquinolin-7-yl)-7-methyl-7H-pyrrolo[2,3-d]pyrimidin-4-amine], 1000 nM. For the compound `Cn1cc(-c2ccc3cc(Cc4cc(F)cc(C(F)(F)F)c4)ncc3c2F)c2c(N)ncnc21` [Example 18, 5-(8-fluoro-3-(3-fluoro-5-(trifluoromethyl)benzyl)isoquinolin-7-yl)-7-methyl-7H-pyrrolo[2,3-d]pyrimidin-4-amine], the IC50 was more than 3980 nM. Consider `Cn1cc(-c2ccc3cc(Cc4cccc(C(F)(F)F)c4)ncc3c2F)c2c(N)ncnc21` [Example 19, 5-(8-fluoro-3-(3-(trifluoromethyl)benzyl)isoquinolin-7-yl)-7-methyl-7H-pyrrolo[2,3-d]pyrimidin-4-amine], for which the IC50 was more than 3980 nM. On the same count and under the same terms, the value for `Nc1ncnc2c1c(-c1ccc3cc(Cc4cc(F)cc(F)c4)ncc3c1F)cn2CC(F)(F)F` [Example 23, 5-(3-(3,5-difluorobenzyl)-8-fluoroisoquinolin-7-yl)-7-(2,2,2-trifluoroethyl)-7H-pyrrolo[2,3-d]pyrimidin-4-amine] was more than 3980 nM. Same read-out and setting: with `Cc1nc(N)c2c(-c3ccc4cc(Cc5cc(F)cc(F)c5)ncc4c3F)cn(C)c2n1` [Example 25, 5-(3-(3,5-difluorobenzyl)-8-fluoroisoquinolin-7-yl)-2,7-dimethyl-7H-pyrrolo[2,3-d]pyrimidin-4-amine] the figure was more than 3980 nM. On the same count and under the same terms, with `Cc1nc(N)c2c(-c3ccc4cc(Cc5cc(F)cc(F)c5)ncc4c3F)cn(C3CC3)c2n1` [Example 28, 7-cyclopropyl-5-(3-(3,5-difluorobenzyl)-8-fluoroisoquinolin-7-yl)-2-methyl-7H-pyrrolo[2,3-d]pyrimidin-4-amine] the figure was 2510 nM.

With `Nc1ncnc2c1c(-c1ccc3cc(Cc4cc(F)cc(F)c4)ncc3c1F)nn2C1CC1` [Example 29, 1-cyclopropyl-3-(3-(3,5-difluorobenzyl)-8-fluoroisoquinolin-7-yl)-1H-pyrazolo[3,4-d]pyrimidin-4-amine], the IC50 is more than 3980 nM. Still for that read-out and setting: the value for `Cc1ccccc1Cc1cc2ccc(-c3cn(C4CC4)c4ncnc(N)c34)c(F)c2cn1` [Example 38, 7-cyclopropyl-5-(8-fluoro-3-(2-methylbenzyl)isoquinolin-7-yl)-7H-pyrrolo[2,3-d]pyrimidin-4-amine] was 12.6 nM; that for `Nc1ncnc2c1c(-c1ccc3cc(Cc4cc(C(F)(F)F)ccc4F)ncc3c1F)cn2C1CC1` [Example 41, 7-cyclopropyl-5-(8-fluoro-3-(2-fluoro-5-(trifluoromethyl)benzyl)isoquinolin-7-yl)-7H-pyrrolo[2,3-d]pyrimidin-4-amine] was 100 nM. Still for that read-out and setting: with `CN(C)CCn1cc(-c2ccc3cc(Cc4cc(F)cc(F)c4)ncc3c2F)c2c(N)ncnc21` [Example 47, 5-(3-(3,5-difluorobenzyl)-8-fluoroisoquinolin-7-yl)-7-(2-(dimethylamino)ethyl)-7H-pyrrolo[2,3-d]pyrimidin-4-amine] the figure was 1580 nM. Same read-out and setting: with `Nc1ncnc2c1c(-c1ccc3cc(Cc4cccc(Cl)c4F)ncc3c1F)cn2C1CC1` [Example 51, 5-(3-(3-chloro-2-fluorobenzyl)-8-fluoroisoquinolin-7-yl)-7-cyclopropyl-7H-pyrrolo[2,3-d]pyrimidin-4-amine] the figure was 3.16 nM; with `Nc1ncnc2c1c(-c1ccc3cc(Cc4cncc(F)c4)ncc3c1F)cn2C1CC1` [Example 53, 7-cyclopropyl-5-(8-fluoro-3-((5-fluoropyridin-3-yl)methyl)isoquinolin-7-yl)-7H-pyrrolo[2,3-d]pyrimidin-4-amine], 631 nM; with `Nc1ncnn2ccc(-c3ccc4cc(Cc5cc(F)cc(F)c5)ncc4c3F)c12` [Example 58, 5-(3-(3,5-difluorobenzyl)-8-fluoroisoquinolin-7-yl)pyrrolo[2,1-f][1,2,4]triazin-4-amine], more than 3980 nM.

Another assay concerns prion infected mice.
Assay: not given
The conditions noted are these: cited from earlier work.
Regarding `Cn1cc(-c2ccc3c(c2)CCN3C(=O)Cc2cccc(C(F)(F)F)c2)c2c(N)ncnc21` [GSK2606414, 7-methyl-5-(1-{[3-(trifluoromethyl)phenyl]acetyl}-2,3-dihydro-1H-indol-5-yl)-7H-pyrrolo[2,3-d]pyrimidin-4-amine], the “neuroprotective effect and clinical signs of disease” value is “provide a neuroprotective effect and prevent clinical signs of disease”.
